Data set [1] is classed as physicochemical. As to conditions: pH 6.8.
Data set [2] in a line: Ketamine wafer safety and tolerability (Likert, Bond and Lader scales) in healthy volunteers. The format is in vivo, human. Here is the method:
Safety assessments included scheduled adverse event (AE) probes, spontaneous AE reporting, routine laboratory investigations, 12-lead electrocardiograms (ECGs) and vital sign evaluation during a 24 hour period from start of dosing. A full physical examination was performed before the first dosing occasion and 24 hours after the second dosing occasion.
Local tolerability was assessed, by using Likert scales, at pre dose, 5, 10, 15, 30 and 45 minutes and one hour post dose administration. Modified Bond and Lader scales to assess sedation and altered perception, by using the three factors “alertness”, “contentedness” and “calmness”, were performed at pre dose, 30 minutes post dose and at hours 1, 1.5, 2, 2.5, 3, 4, 6, 8, 12, and 24 hours post dose administration.
The Bond and Lader scales comprise a total of 16 100-mm lines anchored at either end by antonyms. Participants marked their current subjective state between the antonyms on the line. Each line was scored as millimetres to the mark from the negative antonym. From the resultant scores, three measures derived by factor analysis were isolated. […]

A short description of data set [3]: Ketamine wafer pharmacokinetics and absolute bioavailability, crossover study in healthy volunteers. As to conditions: for extrapolated portion of the AUC, AUCextr: range over subjects; for time of first quantifiable plasma concentration: all subjects.
Where [4] appears, read: gmean of eight volunteers, 10 mg as 30 minute IV infusion.
[5] abbreviates: human, plasma, other: sublingual, 25 mg.
Setting [6] is: individual subjects, 10 mg as 30 minute IV infusion.
Setting [7] is: individual subjects, 25 mg SL wafer.
[8] abbreviates: median of eight volunteers, 25 mg SL.

By MRT is commonly meant a mean duration of stay, worked out from the concentration-time curve. In general, half-life refers to the time in which the quantity being followed falls by half. A low value points to fast loss. Usually AUC stands for the area under the concentration-time curve, a measure of exposure. A lower AUC goes with low exposure. In general, clearance refers to the volume of plasma or blood freed of the substance per unit of time. By Cmax is commonly meant the maximum level reached in the sampled fluid or tissue. Broadly, the Tmax is the time from dosing to the highest level. By bioavailability is commonly meant dose-corrected exposure relative to a reference, in per cent. A higher bioavailability goes with much systemic uptake.

“And” between values parts separate entries of the source, which are not always exact repeats. Equal values may be shown once.

Regarding `Cc1ncc2n1-c1ccc(Cl)cc1C(c1ccccc1F)=NC2` [midazolam powder, midazolam], the “dissolution rate compared with wafer” value in data set [1] is “considerably slower”.

On to `CNC1(c2ccccc2Cl)CCCCC1=O` (racemic) [RS ketamine, ketamine], for which the “Bond and Lader mood rating scales (alertness, contentedness, calmness)” value in data set [2] (10 mg IV and 25 mg SL, 24 hr observation) is “no clear trends for effects”. Moreover, in data set [2] (healthy volunteers), the “ECG, vital signs, haematology, clinical chemistry, urinalysis” value is listed as “no clinically relevant changes or trends for abnormalities”. In addition, the “extrapolated portion of the AUC, AUCextr” value in data set [3] (IV 10 mg) is 3-7%; in data set [3] (SL 25 mg) it was 2-9%. Also, the “time of first quantifiable plasma concentration” value in data set [3] (IV dosing 10 mg) and in data set [3] (SL dosing 25 mg) was “five” each time. In addition, the “Cmax,I” value is 128.0 ng/mL in data set [3] (setting [4]); 190.2 ng/mL and 124.2 ng/mL and 120.3 ng/mL and 101.8 ng/mL and 83.18 ng/mL and 81.12 ng/mL and 226.6 ng/mL and 163.2 ng/mL in data set [3] (individual subjects, 10 mg as 30 minute IV infusion, plasma). Also, the VZ was 237 L in data set [3] (setting [4]); 283 L and 253 L and 300 L and 164 L and 385 L and 375 L and 126 L and 158 L in data set [3] (setting [6]). Moreover, the MRT worked out at 3.9 h in data set [3] (human, plasma, iv, 10 mg) and 3.8 h in data set [3] (setting [5]). The half-life in data set [3] (human, plasma, iv, 10 mg) was 7 h. The AUC in data set [3] (human, plasma, iv, 10 mg, AUCINF__, gmean of eight volunteers, 10 mg as 30 minute IV infusion) was found to be 255 ng·h/mL; in data set [3] (human, plasma, iv, 10 mg, AUCINF__, individual subjects, 10 mg as 30 minute IV infusion) it was 255 ng·h/mL; in data set [3] (human, plasma, other: sublingual, 25 mg, AUCINF_, gmean of eight volunteers, 25 mg SL wafer) it was 185 ng·h/mL; in data set [3] (human, plasma, other: sublingual, 25 mg, AUCINF_, individual subjects, 25 mg SL wafer), 184 ng·h/mL. In addition, the clearance in data set [3] (human, plasma, iv, 10 mg, CL, gmean of eight volunteers, 10 mg as 30 minute IV infusion) was 654 mL/min; in data set [3] (human, plasma, iv, 10 mg, CL, individual subjects, 10 mg as 30 minute IV infusion), 655 mL/min; in data set [3] (human, plasma, iv, 10 mg, Median CL, IV dosing 10 mg) it was 628 mL/min. Moreover, the Cmax was found to be 128 ng/mL in data set [3] (human, plasma, iv, 10 mg, Cmax,I, gmean of eight volunteers, 10 mg as 30 minute IV infusion) and 71.1 ng/mL in data set [3] (human, plasma, other: sublingual, 25 mg, Cmax,S, gmean of eight volunteers, 25 mg SL wafer). Also, the Tmax in data set [3] (human, plasma, iv, 10 mg, tmax,IV, individual subjects, 10 mg as 30 minute IV infusion) was determined as 0.5 h; in data set [3] (human, plasma, iv, 10 mg, tmax,IV, median of eight volunteers, 10 mg as 30 minute IV infusion), 0.5 h; in data set [3] (human, plasma, other: sublingual, 25 mg, tmax,SL, median of eight volunteers, 25 mg SL wafer), 0.75 h. The molecule further gave a bioavailability in data set [3] (setting [5]) of 23 to 38%. The AUCINF__ in data set [3] (setting [6]) was 270.02 ng·h/mL and 289.22 ng·h/mL and 299.44 ng·h/mL and 261.00 ng·h/mL and 167.21 ng·h/mL and 282.73 ng·h/mL and 243.24 ng·h/mL. Besides, the CL in data set [3] (setting [6]) is 37.03 L/h and 34.58 L/h and 33.40 L/h and 38.31 L/h and 59.81 L/h and 35.37 L/h and 41.11 L/h. The “t1/2,I” value in data set [3] (setting [6]) was 5.0 h and 4.7 h and 6.0 h and 3.4 h and 4.3 h and 2.5 h and 2.7 h; in data set [3] (median of eight volunteers, 10 mg as 30 minute IV infusion), 4.5 h. The “tmax,IV” value in data set [3] (setting [6]) is 0.6 h and 0.52 h. In addition, the “bioavailability F” value in data set [3] (individual subjects, 25 mg SL vs 10 mg IV) is 38% and 29% and 30% and 23% and 28% and 27%; in data set [3] (setting [8]), 29 [27, 31] %. Further, the AUCINF_ in data set [3] (setting [7]) was 203.47 ng·h/mL and 171.90 ng·h/mL and 211.33 ng·h/mL and 186.14 ng·h/mL and 161.64 ng·h/mL and 202.89 ng·h/mL and 162.52 ng·h/mL. Moreover, the “t1/2,” value in data set [3] (setting [7]) is 3.2 h and 5.5 h and 3.5 h and 2.3 h and 4.6 h and 5.1 h and 2.9 h and 1.8 h; in data set [3] (median of eight volunteers, 25 mg SL wafer), 3.4 h. Also, the “tmax,SL” value in data set [3] (setting [7]) was 1 h and 0.58 h and 0.25 h. The “Cmax,S” value in data set [3] (individual subjects, 25 mg SL wafer, plasma) was 78.77 ng/mL and 60.24 ng/mL and 50.02 ng/mL and 76.12 ng/mL and 51.79 ng/mL and 61.17 ng/mL and 88.76 ng/mL and 128.2 ng/mL. Also, the “mean absorption time MAT” value in data set [3] (individual subjects, 25 mg SL, MRTSL−MRTIV) was −1.1 hr (2×) and 0.86 hr and −0.56 hr and 0.20 hr and 0.64 hr and 1.1 hr and −0.83 hr; in data set [3] (setting [8]), -0.18 h. Besides, the “mean absorption time MAT, Min-Max” value in data set [3] (minimum and maximum of eight volunteers, 25 mg SL) is -1.1 to 1.1 h.

The record behind these values is patent US12186426B2, “Solid dosage form” (IX BIOPHARMA LTD, priority 2009, dated 2025).
